From PMC5637929, “RadH: A Versatile Halogenase for Integration into Synthetic Pathways” (Angewandte Chemie (International Ed. in English), 2017) come the findings set out here.

Test in all cases: Michaelis-Menten halogenation kinetics
Data set [1] has as its target T1, RadH (Floropilus chiversii, UniProt C5H881).
T1 construct: recombinant, overproduced in E. coli, purified
Format: biochemical. The note with it: kinetic assay conditions in supplement (Figures S4-S10). The source says:
(§1) Michaelis-Menten halogenation kinetics on RadH

The target in data set [2] is T2, RadH (Floropilus chiversii, UniProt C5H881, D465E/T501S).
T2 construct: recombinant, overproduced in E. coli, purified
Format: biochemical. Conditions: kinetic assay conditions in supplement (Figures S4-S10); table prints D456E/T501S, text prints D465E/T501S throughout.
Excerpt: as §1

For data set [3], the system named is O=c1cc(-c2ccccc2)oc2cc(O)ccc12. The class given is biochemical, Floropilus chiversii. Conditions: kinetic assay conditions in supplement (Figures S4-S10).
Excerpt: as §1

[4] abbreviates: table prints D456E/T501S, text prints D465E/T501S throughout.

T2 sequence (C5H881 whole entry D465E/T501S): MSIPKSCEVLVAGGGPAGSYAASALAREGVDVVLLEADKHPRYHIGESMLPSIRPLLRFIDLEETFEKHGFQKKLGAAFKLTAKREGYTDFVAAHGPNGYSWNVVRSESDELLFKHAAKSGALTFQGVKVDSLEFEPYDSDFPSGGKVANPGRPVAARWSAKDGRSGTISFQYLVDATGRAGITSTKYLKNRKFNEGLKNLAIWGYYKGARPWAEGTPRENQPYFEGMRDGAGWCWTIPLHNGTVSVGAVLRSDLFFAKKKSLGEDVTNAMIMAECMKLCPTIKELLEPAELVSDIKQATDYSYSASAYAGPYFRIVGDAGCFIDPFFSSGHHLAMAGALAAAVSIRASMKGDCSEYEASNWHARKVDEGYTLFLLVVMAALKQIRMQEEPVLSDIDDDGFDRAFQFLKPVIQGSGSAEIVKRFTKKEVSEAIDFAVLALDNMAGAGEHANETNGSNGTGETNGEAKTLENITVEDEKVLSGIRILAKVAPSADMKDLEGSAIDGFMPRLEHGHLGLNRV
T1 sequence (C5H881 whole entry): as the sequence (C5H881 whole entry D465E/T501S) above, with E465D, S501T counted along it

Turning to `Oc1ccc2cnccc2c1` [compound 6, 6-hydroxyisoquinoline], the Km at RadH [1] was found to be 277 ± 3 µM; at RadH [2], 268 ± 10 µM.

In the case of `O=c1ccc2ccc(O)cc2o1` [compound 8, 7-hydroxycoumarin], the Km at RadH [1] was 379 ± 5 µM; at RadH [2], 465 ± 4 µM.

Consider `O=c1cc(C(F)(F)F)c2ccc(O)cc2o1` [compound 10, 10], for which the Km on RadH [1] worked out at 309 ± 19 µM.

For the compound `Cc1cc(=O)oc2cc(O)ccc12` [compound 11, 11], the Km on RadH [1] is 364 ± 18 µM.

For the compound `O=c1c(-c2ccc(O)cc2)coc2cc(O)ccc12` [compound 14, 14], the Michaelis-Menten constant (Km) stood at 281 ± 2 µM on RadH [1] and 315 ± 1 µM at RadH [2].

For RadH (Floropilus chiversii), in data set [3], the Km was determined as 347 ± 2 µM, the kcat was determined as 0.000533 ± 5e-05 s⁻¹ and the kcat/Km amounted to 1.53 ± 0.15 M⁻¹ s⁻¹.

For “RadH (Floropilus chiversii; D465E/T501S)”, in data set [3] (setting [4]), the Km was 383 ± 4 µM, the kcat came to 0.000517 ± 3.33e-05 s⁻¹ and the kcat/Km turned out to be 1.35 ± 0.0833 M⁻¹ s⁻¹.
